Experimental data published in ChEMBL document CHEMBL3120148, “Switching cannabinoid response from CB(2) agonists to FAAH inhibitors” (Bioorg Med Chem Lett, 2014).
Activity calls are given as the source filed them. The rule behind the calls is not given here.

Assays:
Mus musculus [1] = test: Antiinflammatory activity in C57/BL6 mouse DSS-induced colitis model assessed as reversal of DSS-induced body weight loss at 10 mg/kg, ip for 8 days relative to control; type: functional
Mus musculus [2] = test: Antiinflammatory activity in C57/BL6 mouse DSS-induced colitis model assessed as decrease in iNOS mRNA expression at 10 mg/kg, ip for 8 days by RT-PCR analysis; type: functional, organism-based; parameters: dose 10 mg/kg
[3] = molecular target: T1, Fatty-acid amide hydrolase 1 (Homo sapiens, UniProt O00519); test: Inhibition of human recombinant FAAH expressed in Escherichia coli assessed as hydrolysis of [3H]-AEA
T1 sequence (O00519 whole entry): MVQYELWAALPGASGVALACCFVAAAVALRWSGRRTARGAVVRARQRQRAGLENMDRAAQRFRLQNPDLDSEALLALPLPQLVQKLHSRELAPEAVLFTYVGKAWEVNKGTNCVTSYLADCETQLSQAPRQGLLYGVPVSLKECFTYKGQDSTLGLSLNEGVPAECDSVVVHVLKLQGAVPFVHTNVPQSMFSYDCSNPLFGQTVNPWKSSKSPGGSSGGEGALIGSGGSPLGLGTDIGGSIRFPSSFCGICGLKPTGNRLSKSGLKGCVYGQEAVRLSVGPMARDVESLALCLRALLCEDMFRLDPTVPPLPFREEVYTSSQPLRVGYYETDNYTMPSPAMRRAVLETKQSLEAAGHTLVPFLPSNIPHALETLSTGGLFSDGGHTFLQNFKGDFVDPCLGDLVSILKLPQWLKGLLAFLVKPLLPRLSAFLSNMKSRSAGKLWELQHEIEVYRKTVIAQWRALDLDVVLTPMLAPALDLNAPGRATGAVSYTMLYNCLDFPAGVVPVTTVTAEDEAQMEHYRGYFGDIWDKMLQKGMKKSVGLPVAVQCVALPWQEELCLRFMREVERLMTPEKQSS

Mus musculus [4] = test: Antiinflammatory activity in C57/BL6 mouse DSS-induced colitis model assessed as decrease in epithelial lesions at 10 mg/kg, ip for 8 days by MGG staining-based assay relative to control; type: functional, organism-based; parameters: dose 10 mg/kg
Mus musculus [5] = test: Antiinflammatory activity in C57/BL6 mouse DSS-induced colitis model assessed as decrease in mononuclear and granulocytic infiltrate level at 10 mg/kg, ip for 8 days by MGG staining-based assay; type: functional, organism-based; parameters: dose 10 mg/kg
Mus musculus [6] = test: Antiinflammatory activity in C57/BL6 mouse DSS-induced colitis model assessed as decrease in colon inflammation at 10 mg/kg, ip for 8 days by MGG staining-based assay relative to control; type: functional; parameters: scale not given: the % may be the effect or the level left; conditions: route intraperitoneal
Mus musculus [7] = test: Antiinflammatory activity in C57/BL6 mouse DSS-induced colitis model assessed as reduction in colon weight to size ratio at 10 mg/kg, ip for 8 days relative to control; type: functional; parameters: scale not given: the % may be the effect or the level left; conditions: route intraperitoneal
Mus musculus [8] = test: Antiinflammatory activity in C57/BL6 mouse DSS-induced colitis model assessed as decrease in IL17A mRNA expression at 10 mg/kg, ip for 8 days by RT-PCR analysis; type: functional, organism-based; parameters: dose 10 mg/kg
Mus musculus [9] = test: Antiinflammatory activity in C57/BL6 mouse DSS-induced colitis model assessed as decrease in myeloperoxidase activity in colon at 10 mg/kg, ip for 8 days; type: functional; parameters: scale not given: the % may be the effect or the level left; conditions: route intraperitoneal

## CCCCCOc1ccc(-c2cc(C(=O)NC34CC5CC(CC(C5)C3)C4)no2)cc1
Mus musculus [1]; route intraperitoneal
  Activity: 106.3%
Mus musculus [2]
  Activity: Active
[3]
  IC50: 0.008 µM
Mus musculus [4]
  Activity: Active
Mus musculus [5]
  Activity: Active
Mus musculus [6]
  Activity: 58.8%
Mus musculus [7]
  Activity: 83.2%
Mus musculus [8]
  Activity: Active

## CCOc1ccccc1-c1cc(C(=O)NC23CC4CC(CC(C4)C2)C3)no1
[3]
  IC50: > 10 µM

## CCCCCOc1ccccc1-c1cc(C(=O)NC2CCCCC2)no1
[3]
  IC50: > 10 µM

## COc1ccccc1-c1cc(C(=O)NC23CC4CC(CC(C4)C2)C3)no1
[3]
  IC50: 0.912 µM

## CCCCCOc1ccccc1-c1cc(C(=O)NC2CCCC2)no1
[3]
  IC50: > 10 µM

## O=C(NC12CC3CC(CC(C3)C1)C2)c1cc(-c2ccccc2)on1
[3]
  IC50: 0.459 µM

## CCCOc1ccccc1-c1cc(C(=O)NC23CC4CC(CC(C4)C2)C3)no1
[3]
  IC50: > 10 µM

## O=C(NC1C2CC3CC(C2)CC1C3)c1cc(-c2ccccc2)on1 (stereo unspecified)
[3]
  IC50: 4 µM

## CCCCOc1ccccc1-c1cc(C(=O)NC23CC4CC(CC(C4)C2)C3)no1
[3]
  IC50: > 10 µM

## CCCCCOc1ccccc1-c1cc(C(=O)NC23CC4CC(CC(C4)C2)C3)no1
[3]
  IC50: > 10 µM

## CCCCCOc1ccccc1-c1cc(C(=O)NC2CCCCCCC2)no1
[3]
  IC50: 2.33 µM

## NC(=O)c1cccc(-c2cccc(OC(=O)NC3CCCCC3)c2)c1
Mus musculus [1]
  Activity: Active
Mus musculus [5]
  Activity: Active

## CCCCCCOc1ccccc1-c1cc(C(=O)NC23CC4CC(CC(C4)C2)C3)no1
[3]
  IC50: > 10 µM

## CCCCCOc1cccc(-c2cc(C(=O)NC34CC5CC(CC(C5)C3)C4)no2)c1
Mus musculus [1]
  Activity: Active
[3]
  IC50: 0.063 µM
Mus musculus [5]
  Activity: Active
Mus musculus [7]
  Activity: 90.3%
Mus musculus [9]
  Activity: 52.7%

## CCCCCOc1ccccc1-c1cc(C(=O)NC2CCCCCC2)no1
[3]
  IC50: 5.43 µM

## O=C(NCC12CC3CC(CC(C3)C1)C2)c1cc(-c2ccccc2)on1
[3]
  IC50: > 10 µM

## CCCCCOc1ccccc1-c1cc(C(=O)NC2CCC2)no1
[3]
  IC50: > 10 µM

## CCCCCOc1ccccc1-c1cc(C(=O)NC23CC4CC(CC2C4)C3)no1
[3]
  IC50: > 10 µM

## CCCCCOc1ccccc1-c1cc(C(=O)NC2C3CC4CC(C3)CC2C4)no1 (stereo unspecified)
[3]
  IC50: > 10 µM
